Source: US8293781B2, “Indole derivatives having cPLA2 inhibiting activity and applications and production methods of the same” (Daiichi Sankyo Company, Limited, priority 2007, dated 2012)
Counter-ions that a name gives are not always drawn.

The compounds below were run against T1, cPLA2 crudely purified from the cytoplasm fraction of U937 (Homo sapiens, UniProt P47712) (assay: Measurement of cPLA2 inhibitory activity (release of [14C]-arachidonic acid from phosphatidyl choline liposome)). Conditions: not given.
T1 construct: cPLA2 crudely purified from the cytoplasm fraction of U937; endogenous in cells; host or cells: U937 cells (cytoplasm fraction, crude purification)
T1 sequence (P47712 1-749): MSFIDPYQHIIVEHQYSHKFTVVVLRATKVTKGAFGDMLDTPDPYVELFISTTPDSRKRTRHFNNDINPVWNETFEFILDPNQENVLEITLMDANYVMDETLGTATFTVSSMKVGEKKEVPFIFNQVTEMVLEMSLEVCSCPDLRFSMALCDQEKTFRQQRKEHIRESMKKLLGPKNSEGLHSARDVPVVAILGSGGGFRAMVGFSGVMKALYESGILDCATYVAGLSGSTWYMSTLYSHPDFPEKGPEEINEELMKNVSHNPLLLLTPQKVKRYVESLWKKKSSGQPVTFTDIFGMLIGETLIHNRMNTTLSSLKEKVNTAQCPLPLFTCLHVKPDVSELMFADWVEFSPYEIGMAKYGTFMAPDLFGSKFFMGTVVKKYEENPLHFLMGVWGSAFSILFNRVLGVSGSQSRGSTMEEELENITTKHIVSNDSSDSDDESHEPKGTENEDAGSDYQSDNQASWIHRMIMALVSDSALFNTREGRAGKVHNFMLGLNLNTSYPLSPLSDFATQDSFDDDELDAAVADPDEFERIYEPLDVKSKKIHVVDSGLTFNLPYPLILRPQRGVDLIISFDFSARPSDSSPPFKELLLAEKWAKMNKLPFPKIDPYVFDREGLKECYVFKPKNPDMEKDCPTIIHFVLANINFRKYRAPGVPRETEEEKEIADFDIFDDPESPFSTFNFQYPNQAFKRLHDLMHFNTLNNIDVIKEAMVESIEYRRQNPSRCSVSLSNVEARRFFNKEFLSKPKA
Type: biochemical
Description: The cPLA2 inhibitory activity was measured based on the method described in the document [See H. Naraba et al., J. Immunol. 160, 2974-2982 (1998)] and modified in the following way.
A DMSO solution of the present invitation compounds was diluted to 2.5 times the final concentration with the assay buffer (4 mM CaCl2, 2 mM dithiothreitol, 150 mM NaCl, 50 mM HEPES buffer solution (pH7.5)) containing 0.55 mg/ml BSA. To 20 μl of this, cPLA2 crudely purified from the cytoplasm fraction of U937 was added in an amount of 10 μl after dilution by an assay buffer solution containing 0.55 mg/ml BSA. A liposome prepared by ultrasonically treating L-α-1-palmitoyl-2-[14C]arachidonyl-phosphatidyl choline (made by PerkinElmer) and adjusted by the assay buffer solution to a concentration of phosphatidyl choline of 10 μM was added and stirred in by an amount of 20 μl and the mixture was reacted at 37° C. for 60 minutes. The [^14C]-arachidonic acid released due to the reaction was extracted based on the method described in the documents [see V. P. Dole et al., J. Biol. Chem. 235, 2595 (1960)], was added to Lumaplate® (made by PerkinElmer), dried, then measured by Topcount® (made by PerkinElmer). Except for not adding the present invention compounds, the same procedure was performed as the above to obtain the enzyme control. Except for not adding the invention compounds and not adding the enzyme, the same procedure was followed as above to obtain a negative control. The inhibiting activity was expressed as a percent (%) of the value minus the negative control with respect to the value of the enzyme control minus the negative control. From this, the 50% inhibiting concentration (IC50, μM) was calculated.

Row | SMILES | IC50 [nM]
1 | O=C(O)/C=C/c1ccc2c(c1)c(C(=O)c1ccccc1)cn2-c1ccccc1 [Example 3, (2E)-3-(3-benzoyl-1-phenyl-1H-indol-5-yl)-2-propenoic acid] | 494
2 | O=C(O)CCc1ccc2c(c1)c(C(=O)c1ccccc1)cn2-c1ccccc1 [Example 4, 3-(3-benzoyl-1-phenyl-1H-indol-5-yl)propanoic acid] | 146
3 | O=C(O)/C=C/c1ccc2c(c1)c(C(=O)Cc1ccccc1)cn2-c1ccccc1 [Example 11, (2E)-3-[1-phenyl-3-(phenylacetyl)-1H-indol-5-yl]-2-propenoic acid] | 1910
4 | O=C(O)CCc1ccc2c(c1)c(C(=O)Cc1ccccc1)cn2-c1ccccc1 [Example 12, 3-[1-phenyl-3-(phenylacetyl)-1H-indol-5-yl]propanoic acid] | 261
5 | Cc1c(C(=O)Cc2ccccc2)c2cc(/C=C/C(=O)O)ccc2n1-c1ccccc1 [Example 44, (2E)-3-[2-methyl-1-phenyl-3-(phenylacetyl)-1H-indol-5-yl]-2-propenoic acid] | 421
6 | Cc1c(C(=O)Cc2ccccc2)c2cc(CCC(=O)O)ccc2n1-c1ccccc1 [Example 45, 3-[2-methyl-1-phenyl-3-(phenylacetyl)-1H-indol-5-yl]propanoic acid] | 225
7 | O=C(O)/C=C/c1ccc2c(c1)c(C(=O)c1cccc3ccccc13)cn2-c1ccccc1 [Example 50, (2E)-3-[3-(1-naphthoyl)-1-phenyl-1H-indol-5-yl]-2-propenoic acid] | 6990
8 | O=C(O)CCc1ccc2c(c1)c(Cc1cccc3ccccc13)cn2-c1ccccc1 [Example 51, 3-[3-(1-naphthylmethyl)-1-phenyl-1H-indol-5-yl]propanoic acid] | 704
9 | O=C(O)/C=C/c1ccc2c(c1)c(C(=O)c1ccc3ccccc3c1)cn2-c1ccccc1 [Example 53, (2E)-3-[3-(2-naphthoyl)-1-phenyl-1H-indol-5-yl]-2-propenoic acid] | 5520
10 | O=C(O)/C=C/c1ccc2c(c1)c(C(=O)Cc1ccc(Cl)cc1)cn2-c1ccccc1 [Example 56, (2E)-3-{3-[(4-chlorophenyl)acetyl]-1-phenyl-1H-indol-5-yl}-2-propenoic acid] | 6400
11 | O=C(O)CCc1ccc2c(c1)c(C(=O)Cc1ccc(Cl)cc1)cn2-c1ccccc1 [Example 57, 3-{3-[(4-chlorophenyl)acetyl]-1-phenyl-1H-indol-5-yl}propanoic acid] | 1390

Same assay, conditions: cPLA2 from U937 cytoplasm fraction, [14C]arachidonyl-phosphatidyl choline liposome, 37° C., 60 minutes; read-out: cPLA2 inhibitory activity, 50% inhibiting concentration IC50

Row | SMILES | IC50 [nM]
12 | O=C(O)/C=C/c1ccc2c(c1)c(Cc1ccccc1)cn2-c1ccccc1 [Example 7, (2E)-3-(3-benzyl-1-phenyl-1H-indol-5-yl)-2-propenoic acid] | 1040
13 | O=C(O)CCc1ccc2c(c1)c(Cc1ccccc1)cn2-c1ccccc1 [Example 8, 3-(3-benzyl-1-phenyl-1H-indol-5-yl)propanoic acid] | 182
14 | O=C(O)/C=C/c1ccc2c(c1)c(CCc1ccccc1)cn2-c1ccccc1 [Example 15, (2E)-3-[1-phenyl-3-(2-phenylethyl)-1H-indol-5-yl]-2-propenoic acid] | 316
15 | O=C(O)CCc1ccc2c(c1)c(CCc1ccccc1)cn2-c1ccccc1 [Example 16, 3-[1-phenyl-3-(2-phenylethyl)-1H-indol-5-yl]propanoic acid] | 75
16 | N#CNC(=O)CCc1ccc2c(c1)c(CCc1ccccc1)cn2-c1ccccc1 [Example 18, N-cyano-3-[1-phenyl-3-(2-phenylethyl)-1H-indol-5-yl]propanamide] | 976
17 | O=C(CCc1ccc2c(c1)c(CCc1ccccc1)cn2-c1ccccc1)Nc1nnn[nH]1 [Example 19, 3-[1-phenyl-3-(2-phenylethyl)-1H-indol-5-yl]-N-tetrazolylpropanamide] | 10800
18 | O=C(CCc1ccc2c(c1)c(CCc1ccccc1)cn2-c1ccccc1)NO [Example 21, N-hydroxy-3-[1-phenyl-3-(2-phenylethyl)-1H-indol-5-yl]propanamide] | 15800
19 | NC(=O)CCc1ccc2c(c1)c(CCc1ccccc1)cn2-c1ccccc1 [Example 22, 3-[1-phenyl-3-(2-phenylethyl)-1H-indol-5-yl]propanamide] | > 100000
20 | c1ccc(CCc2cn(-c3ccccc3)c3ccc(CCc4nnn[nH]4)cc23)cc1 [Example 24, 1-phenyl-3-(2-phenylethyl)-5-[2-(1H-tetrazol-5-yl)ethyl]-1H-indole] | 12800
21 | CC(C(=O)c1cn(-c2ccccc2)c2ccc(/C=C/C(=O)O)cc12)c1ccccc1 (centres unmarked) [Example 26, (2E)-3-[1-phenyl-3-(2-phenylpropanoyl)-1H-indol-5-yl]-2-propenoic acid] | 3400
22 | CC(C(=O)c1cn(-c2ccccc2)c2ccc(CCC(=O)O)cc12)c1ccccc1 (centres unmarked) [Example 27, 3-[1-phenyl-3-(2-phenylpropanoyl)-1H-indol-5-yl]propanoic acid 2-amino-2-(hydroxymethyl)propane-1,3-diol salt (1:1)] | 385
23 | CC(Cc1cn(-c2ccccc2)c2ccc(CCC(=O)O)cc12)c1ccccc1 (centres unmarked) [Example 28, 3-[1-phenyl-3-(2-phenylpropyl)-1H-indol-5-yl]propanoic acid 2-amino-2-(hydroxymethyl)propane-1,3-diol salt (1:1)] | 258
24 | CC(Cc1cn(-c2ccccc2)c2ccc(CCC(N)=O)cc12)c1ccccc1 (centres unmarked) [Example 29, 3-[1-phenyl-3-(2-phenylpropyl)-1H-indol-5-yl]propanamide] | 21300
25 | CC(Cc1cn(-c2ccccc2)c2ccc(/C=C/C(=O)O)cc12)c1ccccc1 (centres unmarked) [Example 33, (2E)-3-[1-phenyl-3-(2-phenylpropyl)-1H-indol-5-yl]-2-propenoic acid] | 662
26 | CCC(C(=O)c1cn(-c2ccccc2)c2ccc(/C=C/C(=O)O)cc12)c1ccccc1 (centres unmarked) [Example 35, (2E)-3-[1-phenyl-3-(2-phenylbutanoyl)-1H-indol-5-yl]-2-propenoic acid] | 5810
27 | CCC(C(=O)c1cn(-c2ccccc2)c2ccc(CCC(=O)O)cc12)c1ccccc1 (centres unmarked) [Example 36, 3-[1-phenyl-3-(2-phenylbutanoyl)-1H-indol-5-yl]propanoic acid 2-amino-2-(hydroxymethyl)propane-1,3-diol salt (1:1)] | 330
28 | CCC(Cc1cn(-c2ccccc2)c2ccc(CCC(=O)O)cc12)c1ccccc1 (centres unmarked) [Example 37, 3-[1-phenyl-3-(2-phenylbutyl)-1H-indol-5-yl]propanoic acid 2-amino-2-(hydroxymethyl)propane-1,3-diol salt (1:1)] | 1450
29 | O=C(O)/C=C/c1ccc2c(c1)c(C(=O)C1(c3ccccc3)CC1)cn2-c1ccccc1 [Example 39, (2E)-3-{1-phenyl-3-[(1-phenylcyclopropyl)carbonyl]-1H-indol-5-yl}-2-propenoic acid] | 10800
30 | O=C(O)CCc1ccc2c(c1)c(C(=O)C1(c3ccccc3)CC1)cn2-c1ccccc1 [Example 40, 3-{1-phenyl-3-[(1-phenylcyclopropyl)carbonyl]-1H-indol-5-yl}propanoic acid] | 2300
31 | O=C(O)CCc1ccc2c(c1)c(CC1(c3ccccc3)CC1)cn2-c1ccccc1 [Example 41, 3-{1-phenyl-3-[(1-phenylcyclopropyl)methyl]-1H-indol-5-yl}propanoic acid 2-amino-2-(hydroxymethyl)propane-1,3-diol salt (1:1)] | 634
32 | O=C(O)CCc1ccc2c(c1)c(Cc1ccc3ccccc3c1)cn2-c1ccccc1 [Example 54, 3-[3-(2-naphthylmethyl)-1-phenyl-1H-indol-5-yl]propanoic acid] | 6120
